The record followed here is patent US20140011799A1 (Bristol-Myers Squibb Company, priority 2012, published 2014).

One assay addresses T1, Endothelial lipase (EL) (Homo sapiens, UniProt Q9Y5X9).
T1 construct: HT-1080 cells that were transformed using RAGE technology (Athersys) to overexpress endogenous EL; endogenous in cells; conditioned medium used
T1 sequence (Q9Y5X9 21-500): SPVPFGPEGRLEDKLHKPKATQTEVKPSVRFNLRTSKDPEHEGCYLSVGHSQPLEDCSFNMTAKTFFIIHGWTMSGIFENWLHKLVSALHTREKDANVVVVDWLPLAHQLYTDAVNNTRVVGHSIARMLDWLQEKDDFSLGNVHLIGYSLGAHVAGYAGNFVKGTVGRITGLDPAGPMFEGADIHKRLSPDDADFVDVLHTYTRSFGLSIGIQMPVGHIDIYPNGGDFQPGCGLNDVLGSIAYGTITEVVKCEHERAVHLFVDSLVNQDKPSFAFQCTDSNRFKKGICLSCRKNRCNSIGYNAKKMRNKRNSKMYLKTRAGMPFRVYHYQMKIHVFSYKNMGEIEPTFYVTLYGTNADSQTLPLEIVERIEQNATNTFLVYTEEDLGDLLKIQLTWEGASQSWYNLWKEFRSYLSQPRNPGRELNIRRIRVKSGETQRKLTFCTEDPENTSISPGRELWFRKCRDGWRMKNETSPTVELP
Nature of the assay: Endothelial lipase (EL) enzymatic assay, fluorescent substrate A10070 in DMPG vesicles. The settings on record: EL from conditioned media of HT-1080 cells; compound preincubated 30 min at 37° C; read-out: EL IC50. The assay is classed as biochemical. The essentials: (§1)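 Compounds were preincubated with enzyme for 30 min at 37° C before FRET-substrate vesicles (A10070 in DMPG, 0.11 mole fraction) were added. Reaction rates were obtained from the 300–900 sec slope of fluorescence at 490/530 nm.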

The target of another assay is T2, hepatic lipase (HL) (Homo sapiens, UniProt P11150).
T2 construct: made in house; host or cells: COS cells (conditioned medium, partially purified)
T2 sequence (P11150 23-499): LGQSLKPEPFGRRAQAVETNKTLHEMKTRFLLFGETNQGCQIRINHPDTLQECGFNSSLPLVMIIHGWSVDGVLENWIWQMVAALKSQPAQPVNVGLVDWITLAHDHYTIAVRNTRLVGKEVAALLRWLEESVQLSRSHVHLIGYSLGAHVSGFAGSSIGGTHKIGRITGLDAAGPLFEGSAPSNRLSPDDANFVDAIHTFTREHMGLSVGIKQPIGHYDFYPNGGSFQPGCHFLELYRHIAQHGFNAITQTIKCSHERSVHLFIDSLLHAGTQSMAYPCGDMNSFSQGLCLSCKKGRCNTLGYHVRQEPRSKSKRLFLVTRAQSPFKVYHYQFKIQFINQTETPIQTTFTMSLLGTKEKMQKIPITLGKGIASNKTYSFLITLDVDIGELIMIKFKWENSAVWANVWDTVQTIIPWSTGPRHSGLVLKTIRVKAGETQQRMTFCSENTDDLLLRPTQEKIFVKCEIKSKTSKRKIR
Nature of the assay: Hepatic lipase (HL) enzymatic assay, fluorescent substrate A10070 in DMPG vesicles. Type of assay: biochemical. The following applies: HL partially purified from conditioned media of COS cells; compound preincubated 30 min at 37° C; read-out: HL IC50. The essentials: as §1

For the molecule `CS(=O)(=O)C(c1nnc(CNS(N)(=O)=O)o1)c1nc2ccc(-c3cccc(C(=O)Nc4nnc(C(F)(F)F)o4)c3)cc2s1` (stereo not drawn) [Example 253, 3-{2-[methanesulfonyl({5-[(sulfamoylamino)methyl]-1,3,4-oxadiazol-2-yl})methyl]-1,3-benzothiazol-6-yl}-N-[5-(trifluoromethyl)-1,3,4-oxadiazol-2-yl] benzamide], the values for the half-inhibitory concentration (IC50) on Endothelial lipase (EL) and on hepatic lipase (HL) were 7 nM and 62 nM, respectively.

With `O=C(NCCS(=O)(=O)C(c1nnc(CC2SC(=O)NC2=O)o1)c1nc2cc(F)c(-c3ccccc3)cc2s1)OCc1ccccc1` (stereo not drawn) [Example 167, benzyl (2-(((5-((2,4-dioxo-1,3-thiazolidin-5-yl)methyl)-1,3,4-oxadiazol-2-yl)(5-fluoro-6-phenyl-1,3-benzothiazol-2-yl)methyl)sulfonyl)ethyl)carbamate], the IC50 on Endothelial lipase (EL) and at hepatic lipase (HL) was under 10 nM throughout.

As for `NS(=O)(=O)NCc1nnc(C(c2nc3ccc(-c4cccc(C(=O)NCC(F)(F)F)c4)cc3s2)S(=O)(=O)CCC(F)(F)F)o1` (stereo not drawn) [Example 195, 3-(2-((5-((sulfamoylamino)methyl)-1,3,4-oxadiazol-2-yl)((3,3,3-trifluoropropyl)sulfonyl)methyl)-1,3-benzothiazol-6-yl)-N-(2,2,2-trifluoroethyl)benzamide], the 50% inhibitory concentration (IC50) on Endothelial lipase (EL) is under 10 nM; at hepatic lipase (HL), 336 nM.

For `COCCS(=O)(=O)C(c1nnc(CNS(=O)(=O)NC(=O)OC(C)(C)C)o1)c1nc2ccc(-c3cc(F)cc(Cl)c3)cc2s1` (stereo not drawn) [Example 153, tert-butyl (((5-((6-(3-chloro-5-fluorophenyl)-1,3-benzothiazol-2-yl)((2-methoxyethyl)sulfonyl)methyl)-1,3,4-oxadiazol-2-yl)methyl)sulfamoyl) carbamate], the concentration for half-maximal inhibition (IC50) at Endothelial lipase (EL) amounted to 19 nM; on hepatic lipase (HL), 17 nM.

As to `NS(=O)(=O)NCc1nnc(C(c2nc3ccc(-c4cc(F)nc(F)c4)cc3s2)S(=O)(=O)Cc2ccccc2)o1` (stereo not drawn) [Example 145, N-((5-((benzylsulfonyl)(6-(2,6-difluoro-4-pyridinyl)-1,3-benzothiazol-2-yl)methyl)-1,3,4-oxadiazol-2-yl)methyl)sulfamide], the 50% inhibitory concentration (IC50) at Endothelial lipase (EL) was under 10 nM; at hepatic lipase (HL), 77 nM.

Turning to `COCCS(=O)(=O)C(c1nnc(CC(=O)NC2CC2)o1)c1nc2ccc(-c3ccc(F)nc3)cc2s1` (stereo not drawn) [Example 250, N-cyclopropyl-2-(5-{[6-(6-fluoropyridin-3-yl)-1,3-benzothiazol-2-yl] (2-methoxyethanesulfonyl)methyl}-1,3,4-oxadiazol-2-yl)acetamide], the IC50 on Endothelial lipase (EL) is 194 nM; at hepatic lipase (HL), 306 nM.

In the case of `Cn1cc(-c2ccc3nc(C(c4nnc(CNS(N)(=O)=O)o4)S(C)(=O)=O)sc3c2)cn1` (stereo not drawn) [Example 113, N-((5-((6-(1-methyl-1H-pyrazol-4-yl)-1,3-benzothiazol-2-yl)(methylsulfonyl)methyl)-1,3,4-oxadiazol-2-yl)methyl) sulfamide], the results for the concentration for half-maximal inhibition (IC50) at Endothelial lipase (EL) and at hepatic lipase (HL) were under 10 nM and 220 nM, respectively.

Regarding `O=C1NC(=O)C(Cc2nnc(C(c3nc4ccc(-c5ccc(C(=O)N6CCOCC6)cc5)cc4s3)S(=O)(=O)CCN3CCOCC3)o2)S1` (stereo not drawn) [Example 106, 5-((5-((6-(4-(4-morpholinylcarbonyl)phenyl)-1,3-benzothiazol-2-yl)((2-(4-morpholinyl)ethyl)sulfonyl)methyl)-1,3,4-oxadiazol-2-yl)methyl)-1,3-thiazolidine-2,4-dione], the concentration for half-maximal inhibition (IC50) at Endothelial lipase (EL) is under 10 nM; at hepatic lipase (HL), 1340 nM.

As for `COCCS(=O)(=O)C(c1nnc(CNS(N)(=O)=O)o1)c1nc2ccc(-c3ccccc3)cc2s1` (stereo not drawn) [Example 119, N-[(5-{[(2-methoxyethyl)sulfonyl](6-phenyl-1,3-benzothiazol-2-yl)methyl}-1,3,4-oxadiazol-2-yl)methyl]sulfuric diamide], the 50% inhibitory concentration (IC50) at Endothelial lipase (EL) and on hepatic lipase (HL) was under 10 nM in each case.
